We go through one molecule from publication PMC8500670, “A selective WDR5 degrader inhibits acute myeloid leukemia in patient-derived mouse models” (Science translational medicine, 2021).

Read-outs that look alike come from different tables or passages of the source.

Holding throughout (assay): biochemical
Common to all, as to design: protein methyltransferase selectivity panel, enzyme activity relative to DMSO controls, single concentration in duplicate

The target of test [1] is NSD1 (Homo sapiens, UniProt Q96L73). The settings on record: Substrate:=Nucleosomes. The procedure:
(§1) We next assessed selectivity of MS67 against 22 protein methyltransferases (table S2) and a broad panel of common drug targets including 45 kinases (table S3) and 44 G protein–coupled receptors (GPCR), ion channels, and transporters (table S4). […] We subsequently determined that MS67 had moderate binding affinity (Ki = 1.0 ± 0.8 μM) to Sigma 2 receptor (fig. S10).

In test [2] the target is PRMT3 (Homo sapiens, UniProt O60678). The settings on record: Substrate:=Histone H4. The procedure: as §1
PRMT3, sequence (O60678 whole entry): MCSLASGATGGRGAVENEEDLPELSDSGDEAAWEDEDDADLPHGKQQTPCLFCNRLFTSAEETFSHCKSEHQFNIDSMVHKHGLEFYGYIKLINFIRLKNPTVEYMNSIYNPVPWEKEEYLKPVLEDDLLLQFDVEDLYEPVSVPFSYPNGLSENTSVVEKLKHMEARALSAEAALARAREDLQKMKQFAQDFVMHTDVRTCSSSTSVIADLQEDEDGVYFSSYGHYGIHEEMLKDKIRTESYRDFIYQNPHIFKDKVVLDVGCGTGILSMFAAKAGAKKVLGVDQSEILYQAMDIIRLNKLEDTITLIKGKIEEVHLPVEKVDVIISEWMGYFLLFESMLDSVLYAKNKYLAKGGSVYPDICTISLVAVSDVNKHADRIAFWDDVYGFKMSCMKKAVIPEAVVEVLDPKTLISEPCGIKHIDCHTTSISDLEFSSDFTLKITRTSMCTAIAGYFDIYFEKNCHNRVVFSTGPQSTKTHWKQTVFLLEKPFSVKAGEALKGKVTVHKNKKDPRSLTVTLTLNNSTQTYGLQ
The target in test [3] is T1, PRMT4 (Homo sapiens, UniProt Q86X55).
T1 construct: gene CARM1
T1 sequence (Q86X55 1-608): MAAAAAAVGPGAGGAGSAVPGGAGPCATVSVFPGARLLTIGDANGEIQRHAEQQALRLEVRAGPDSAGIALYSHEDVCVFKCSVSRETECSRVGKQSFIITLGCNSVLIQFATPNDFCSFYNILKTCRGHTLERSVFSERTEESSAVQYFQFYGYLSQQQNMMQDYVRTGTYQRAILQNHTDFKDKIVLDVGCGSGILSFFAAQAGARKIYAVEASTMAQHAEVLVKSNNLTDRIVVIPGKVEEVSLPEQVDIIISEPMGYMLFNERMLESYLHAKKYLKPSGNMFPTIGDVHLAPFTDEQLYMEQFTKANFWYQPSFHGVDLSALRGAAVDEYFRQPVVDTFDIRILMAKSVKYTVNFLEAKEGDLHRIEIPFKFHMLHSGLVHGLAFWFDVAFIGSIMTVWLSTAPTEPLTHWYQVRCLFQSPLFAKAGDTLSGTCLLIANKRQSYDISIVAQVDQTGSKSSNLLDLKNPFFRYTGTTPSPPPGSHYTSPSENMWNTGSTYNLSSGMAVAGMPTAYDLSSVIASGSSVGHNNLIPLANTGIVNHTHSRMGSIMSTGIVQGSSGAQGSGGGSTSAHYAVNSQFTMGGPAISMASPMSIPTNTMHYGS
The settings on record: Substrate:=Histone H3. The procedure: as §1

Test [4] deals with T2, PRMT7 (Homo sapiens, UniProt Q9NVM4).
T2 sequence (Q9NVM4 1-692): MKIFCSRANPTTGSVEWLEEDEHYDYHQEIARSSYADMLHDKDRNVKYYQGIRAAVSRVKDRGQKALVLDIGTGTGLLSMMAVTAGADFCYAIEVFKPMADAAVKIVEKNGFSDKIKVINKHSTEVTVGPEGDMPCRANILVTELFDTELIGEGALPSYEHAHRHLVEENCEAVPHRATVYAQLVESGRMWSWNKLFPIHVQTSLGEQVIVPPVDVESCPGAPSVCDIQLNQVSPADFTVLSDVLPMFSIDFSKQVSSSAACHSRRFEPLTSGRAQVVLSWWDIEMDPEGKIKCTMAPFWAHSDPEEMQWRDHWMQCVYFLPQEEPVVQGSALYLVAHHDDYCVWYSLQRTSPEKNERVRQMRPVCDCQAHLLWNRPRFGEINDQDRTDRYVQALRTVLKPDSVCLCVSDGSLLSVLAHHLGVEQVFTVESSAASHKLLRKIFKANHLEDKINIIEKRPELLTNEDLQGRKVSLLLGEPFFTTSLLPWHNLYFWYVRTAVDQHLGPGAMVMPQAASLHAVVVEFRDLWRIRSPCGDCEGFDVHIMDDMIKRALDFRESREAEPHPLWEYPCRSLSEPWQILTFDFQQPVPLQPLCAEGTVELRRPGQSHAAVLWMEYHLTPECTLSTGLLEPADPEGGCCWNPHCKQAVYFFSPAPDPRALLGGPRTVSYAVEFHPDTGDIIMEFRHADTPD
Particulars: Substrate:=GST-GAR. How it is done:
as §1

Test [5] addresses T3, SET8 (Homo sapiens, UniProt Q9NQR1).
T3 construct: gene KMT5A
T3 sequence (Q9NQR1 1-393): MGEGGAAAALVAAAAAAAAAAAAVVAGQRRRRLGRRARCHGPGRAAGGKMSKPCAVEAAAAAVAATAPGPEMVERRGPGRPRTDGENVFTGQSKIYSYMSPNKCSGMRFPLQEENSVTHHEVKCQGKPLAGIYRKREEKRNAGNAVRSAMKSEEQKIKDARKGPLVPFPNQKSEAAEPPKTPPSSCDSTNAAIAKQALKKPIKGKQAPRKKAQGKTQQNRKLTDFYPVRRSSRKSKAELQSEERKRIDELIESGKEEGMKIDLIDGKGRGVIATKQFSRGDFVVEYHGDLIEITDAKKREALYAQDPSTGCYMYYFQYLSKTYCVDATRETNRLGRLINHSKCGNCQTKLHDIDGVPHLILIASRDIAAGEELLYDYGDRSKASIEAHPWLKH
Particulars: Substrate:=Nucleosomes. The procedure:
as §1

The target in test [6] is SETD2 (Homo sapiens, UniProt Q9BYW2). The settings on record: Substrate:=Nucleosomes. How it is done:
as §1

The mark [7] stands for this setting: read-out: Enzyme % Activity (relative to DMSO controls) / MS67 / 10 / Data 1:
The mark [8] stands for this setting: read-out: Enzyme % Activity (relative to DMSO controls) / MS67 / 10 / Data 2:

SETD2, sequence (Q9BYW2 whole entry): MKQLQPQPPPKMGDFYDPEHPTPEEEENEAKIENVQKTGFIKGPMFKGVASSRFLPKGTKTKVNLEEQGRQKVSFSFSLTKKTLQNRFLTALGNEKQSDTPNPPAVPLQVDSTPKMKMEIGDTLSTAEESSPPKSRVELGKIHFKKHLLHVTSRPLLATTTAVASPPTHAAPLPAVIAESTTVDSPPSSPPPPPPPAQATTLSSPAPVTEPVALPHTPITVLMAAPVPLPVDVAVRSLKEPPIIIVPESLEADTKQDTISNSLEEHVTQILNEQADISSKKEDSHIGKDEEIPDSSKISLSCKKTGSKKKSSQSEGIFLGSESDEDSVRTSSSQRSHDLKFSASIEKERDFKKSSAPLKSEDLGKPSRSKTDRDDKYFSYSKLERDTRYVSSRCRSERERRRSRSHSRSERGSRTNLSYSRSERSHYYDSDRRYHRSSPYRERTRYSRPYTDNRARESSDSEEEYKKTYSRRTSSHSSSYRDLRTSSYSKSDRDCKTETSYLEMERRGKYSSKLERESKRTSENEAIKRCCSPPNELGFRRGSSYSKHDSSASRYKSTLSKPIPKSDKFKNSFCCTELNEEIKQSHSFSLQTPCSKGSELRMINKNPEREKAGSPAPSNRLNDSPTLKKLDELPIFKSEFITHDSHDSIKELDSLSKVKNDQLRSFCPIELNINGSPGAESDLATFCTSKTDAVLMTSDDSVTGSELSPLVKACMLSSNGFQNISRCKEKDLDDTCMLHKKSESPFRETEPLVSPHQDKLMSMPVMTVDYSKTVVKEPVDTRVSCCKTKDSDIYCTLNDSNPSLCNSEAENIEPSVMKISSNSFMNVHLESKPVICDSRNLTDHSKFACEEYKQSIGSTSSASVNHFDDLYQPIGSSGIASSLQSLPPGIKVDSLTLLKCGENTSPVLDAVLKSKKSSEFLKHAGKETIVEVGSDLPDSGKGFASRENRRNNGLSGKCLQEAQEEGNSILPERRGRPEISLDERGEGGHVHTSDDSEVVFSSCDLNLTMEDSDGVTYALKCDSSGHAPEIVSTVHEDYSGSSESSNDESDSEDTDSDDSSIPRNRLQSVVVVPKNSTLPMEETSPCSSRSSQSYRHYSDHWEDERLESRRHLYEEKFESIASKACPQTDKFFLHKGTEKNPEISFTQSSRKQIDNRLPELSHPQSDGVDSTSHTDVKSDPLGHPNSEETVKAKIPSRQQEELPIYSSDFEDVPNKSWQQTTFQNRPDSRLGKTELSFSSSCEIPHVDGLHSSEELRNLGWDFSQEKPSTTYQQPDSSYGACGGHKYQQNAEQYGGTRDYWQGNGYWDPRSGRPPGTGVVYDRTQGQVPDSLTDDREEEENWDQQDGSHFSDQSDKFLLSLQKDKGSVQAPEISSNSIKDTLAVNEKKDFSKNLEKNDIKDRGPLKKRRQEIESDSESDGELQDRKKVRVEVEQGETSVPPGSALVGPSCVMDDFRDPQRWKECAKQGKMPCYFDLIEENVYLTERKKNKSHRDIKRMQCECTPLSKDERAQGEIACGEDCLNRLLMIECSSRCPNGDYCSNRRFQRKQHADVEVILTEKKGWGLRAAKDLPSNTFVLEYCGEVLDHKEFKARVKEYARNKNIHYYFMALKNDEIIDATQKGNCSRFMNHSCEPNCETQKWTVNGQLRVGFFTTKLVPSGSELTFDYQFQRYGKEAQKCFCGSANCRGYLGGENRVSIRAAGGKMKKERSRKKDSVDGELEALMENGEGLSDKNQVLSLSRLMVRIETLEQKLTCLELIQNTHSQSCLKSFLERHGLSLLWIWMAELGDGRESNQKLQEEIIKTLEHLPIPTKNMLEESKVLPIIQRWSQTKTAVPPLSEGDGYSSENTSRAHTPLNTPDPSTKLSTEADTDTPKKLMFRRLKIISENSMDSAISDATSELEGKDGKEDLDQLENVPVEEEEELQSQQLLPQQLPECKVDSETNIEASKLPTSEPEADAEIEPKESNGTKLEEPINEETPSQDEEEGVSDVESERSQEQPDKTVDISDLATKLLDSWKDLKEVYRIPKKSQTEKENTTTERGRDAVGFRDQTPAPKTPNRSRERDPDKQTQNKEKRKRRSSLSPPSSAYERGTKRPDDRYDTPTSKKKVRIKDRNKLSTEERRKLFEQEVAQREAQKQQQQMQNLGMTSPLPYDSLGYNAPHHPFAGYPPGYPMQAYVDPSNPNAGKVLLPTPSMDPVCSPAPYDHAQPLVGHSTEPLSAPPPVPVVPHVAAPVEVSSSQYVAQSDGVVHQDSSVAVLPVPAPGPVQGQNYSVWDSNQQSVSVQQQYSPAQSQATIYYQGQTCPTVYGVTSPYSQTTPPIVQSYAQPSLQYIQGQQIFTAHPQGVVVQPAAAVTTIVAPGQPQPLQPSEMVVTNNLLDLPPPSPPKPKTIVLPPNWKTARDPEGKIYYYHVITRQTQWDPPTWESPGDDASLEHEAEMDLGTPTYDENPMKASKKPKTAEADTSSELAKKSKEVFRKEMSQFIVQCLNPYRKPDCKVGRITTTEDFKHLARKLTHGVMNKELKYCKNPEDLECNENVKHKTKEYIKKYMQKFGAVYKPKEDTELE

As for `Cc1ncsc1-c1ccc([C@H](C)NC(=O)[C@@H]2C[C@@H](O)CN2C(=O)[C@@H](NC(=O)CNC(=O)c2ccc(F)c(-c3ccc(N4C[C@@H](C)N(C)[C@@H](C)C4)c(NC(=O)c4c[nH]c(=O)cc4C(F)(F)F)c3)c2)C(C)(C)C)cc1` [MS67], the remaining activity at 10 µM in test [1] (setting [7]) was found to be 111%; in test [1] (setting [8]), 107%; in test [2] (setting [7]), 92%; in test [2] (setting [8]) it was 102%; in test [3] (setting [7]) it was 107%; in test [3] (setting [8]), 98.9%. Moreover, the remaining activity at 10 µM in test [4] (setting [7]) was 100%; in test [4] (setting [8]), 103%; in test [5] (setting [7]) it was 112%; in test [5] (setting [8]) it was 113%; in test [6] (setting [7]), 112%; in test [6] (setting [8]), 110%.
